# Publication PMC5433425 (PeerJ, 2017)
# Like-named read-outs stand apart in the source and are kept apart here.
# Key:
# [1] = system: E. coli AG100A; assay: microbe, parasite or virus in culture; format: cell-based, Escherichia coli; conditions: Escherichia coli, AG100A, read-out: MIC without efflux inhibitor
# Protocol: The minimum inhibitory concentrations (MICs) were determined using the broth microdilution method according to the CLSI guidelines ([Clinical and Laboratory Standards Institute, 2014]). […] Two-fold serial dilutions of the compounds were made to achieve the following concentrations: 320 µM–40 µM. The MICs were determined as the lowest concentration at which no visible growth was observed after 18 h of incubation at 37 °C. The assays were performed in triplicate and the MIC value was given as result of at least two concordant values.
# [2] = system: E. coli AG100A (AcrAB pump-deficient); assay: MIC, broth microdilution; format: cell-based, Escherichia coli; conditions: Escherichia coli
# [3] = system: E. coli AG100tet; assay: microbe, parasite or virus in culture; format: cell-based, Escherichia coli; conditions: Escherichia coli, AG100TET, read-out: MIC without efflux inhibitor, AG100tet; inhibitor 0 μM
# Protocol: (§1) The assays were performed in triplicate and the MIC value was given as result of at least two concordant values.
# [4] = system: E. coli AG100; assay: EtBr accumulation by real-time fluorometry
# [5] = system: E. coli AG100tet; assay: EtBr accumulation by real-time fluorometry; conditions: AG100tet
# [6] = system: E. coli AG100; assay: Checkerboard synergy assay (MIC of antibiotics/EtBr with efflux inhibitor); format: cell-based, Escherichia coli; conditions: Escherichia coli
# Protocol: as §1
# [7] = system: E. coli AG100A; conditions: AG100A
# [8] = system: E. coli AG100tet (AcrAB overexpressing); assay: MIC, broth microdilution; format: cell-based, Escherichia coli; conditions: Escherichia coli
# [9] = system: E. coli K-12 AG100 (wild-type); assay: MIC, broth microdilution; format: cell-based; conditions: Escherichia coli
# [10] = system: E. coli AG100; assay: Membrane potential assay (BacLight, DiOC2(3)); conditions: positive control 156 µM (half MIC)
smiles,measurement,setting,value
"CC[n+]1c(-c2ccccc2)c2cc(N)ccc2c2ccc(N)cc21 [EtBr, ethidium bromide]",MIC,[1],3.12 µg/mL
same,MIC,[2],3.12 µg/mL
same,MIC,[3],512 µg/mL
same,equilibrium concentration (influx equals efflux),[4]; AG100,1 µg/mL
same,EtBr fluorescence,"[4]; EtBr 0.5 µg/ml, cycle 1",3.237
same,EtBr fluorescence,"[4]; EtBr 0.5 µg/ml, cycle 7",3.883
same,EtBr fluorescence,"[4]; EtBr 0.5 µg/ml, cycle 8",4.039
same,EtBr fluorescence,"[4]; EtBr 0.5 µg/ml, cycle 9",4.222
same,EtBr fluorescence,"[4]; EtBr 0.5 µg/ml, cycle 10",4.226
same,EtBr fluorescence,"[4]; EtBr 0.5 µg/ml, cycle 11",4.3568
same,EtBr fluorescence,"[4]; EtBr 0.5 µg/ml, cycle 12",4.419
same,EtBr fluorescence,"[4]; EtBr 0.5 µg/ml, cycle 13",4.6831
same,EtBr fluorescence,"[4]; EtBr 0.5 µg/ml, cycle 14",4.514
same,EtBr fluorescence,"[4]; EtBr 0.5 µg/ml, cycle 15",4.795
same,EtBr fluorescence,"[4]; EtBr 0.5 µg/ml, cycle 16",4.926
same,EtBr fluorescence,"[4]; EtBr 0.5 µg/ml, cycle 17",4.878
same,EtBr fluorescence,"[4]; EtBr 0.5 µg/ml, cycle 18",4.912
same,EtBr fluorescence,"[4]; EtBr 0.5 µg/ml, cycle 19",5.122
same,EtBr fluorescence,"[4]; EtBr 0.5 µg/ml, cycle 20",5.073
same,EtBr fluorescence,"[4]; EtBr 0.5 µg/ml, cycle 21",5.194
same,EtBr fluorescence,"[4]; EtBr 0.5 µg/ml, cycle 22",5.233
same,EtBr fluorescence,"[4]; EtBr 0.5 µg/ml, cycle 23",5.309
same,EtBr fluorescence,"[4]; EtBr 0.5 µg/ml, cycle 24",5.461
same,EtBr fluorescence,"[4]; EtBr 0.5 µg/ml, cycle 25",5.593
same,EtBr fluorescence,"[4]; EtBr 0.5 µg/ml, cycle 26",5.584
same,EtBr fluorescence,"[4]; EtBr 0.5 µg/ml, cycle 27",5.69
same,EtBr fluorescence,"[4]; EtBr 0.5 µg/ml, cycle 28",5.64
same,EtBr fluorescence,"[4]; EtBr 0.5 µg/ml, cycle 29",5.6965
same,EtBr fluorescence,"[4]; EtBr 0.5 µg/ml, cycle 30",5.739
same,EtBr fluorescence,"[4]; EtBr 1 µg/ml, cycle 1",4.697
same,EtBr fluorescence,"[4]; EtBr 1 µg/ml, cycle 2",4.852
same,EtBr fluorescence,"[4]; EtBr 1 µg/ml, cycle 3",5.005
same,EtBr fluorescence,"[4]; EtBr 1 µg/ml, cycle 4",5.143
same,EtBr fluorescence,"[4]; EtBr 1 µg/ml, cycle 5",5.505
same,EtBr fluorescence,"[4]; EtBr 1 µg/ml, cycle 6",5.767
same,EtBr fluorescence,"[4]; EtBr 1 µg/ml, cycle 7",5.841
same,EtBr fluorescence,"[4]; EtBr 1 µg/ml, cycle 8",6.0562
same,EtBr fluorescence,"[4]; EtBr 1 µg/ml, cycle 9",6.088
same,EtBr fluorescence,"[4]; EtBr 1 µg/ml, cycle 10",6.339
same,EtBr fluorescence,"[4]; EtBr 1 µg/ml, cycle 11",6.446
same,EtBr fluorescence,"[4]; EtBr 1 µg/ml, cycle 12",6.666
same,EtBr fluorescence,"[4]; EtBr 1 µg/ml, cycle 13",6.748
same,EtBr fluorescence,"[4]; EtBr 1 µg/ml, cycle 14",6.978
same,EtBr fluorescence,"[4]; EtBr 1 µg/ml, cycle 15",7.028
same,EtBr fluorescence,"[4]; EtBr 1 µg/ml, cycle 16",7.227
same,EtBr fluorescence,"[4]; EtBr 1 µg/ml, cycle 17",7.381
same,EtBr fluorescence,"[4]; EtBr 1 µg/ml, cycle 18",7.326
same,EtBr fluorescence,"[4]; EtBr 1 µg/ml, cycle 19",7.434
same,EtBr fluorescence,"[4]; EtBr 1 µg/ml, cycle 20",7.666
same,EtBr fluorescence,"[4]; EtBr 1 µg/ml, cycle 21",7.737
same,EtBr fluorescence,"[4]; EtBr 1 µg/ml, cycle 22",7.695
same,EtBr fluorescence,"[4]; EtBr 1 µg/ml, cycle 23",7.798
same,EtBr fluorescence,"[4]; EtBr 1 µg/ml, cycle 24",7.86
same,EtBr fluorescence,"[4]; EtBr 1 µg/ml, cycle 25",7.955
same,EtBr fluorescence,"[4]; EtBr 1 µg/ml, cycle 26",7.794
same,EtBr fluorescence,"[4]; EtBr 1 µg/ml, cycle 27",7.948
same,EtBr fluorescence,"[4]; EtBr 1 µg/ml, cycle 28",8.04
same,EtBr fluorescence,"[4]; EtBr 1 µg/ml, cycle 29",8.111
same,EtBr fluorescence,"[4]; EtBr 1 µg/ml, cycle 30",8.205
same,EtBr fluorescence,"[4]; EtBr 2 µg/ml, cycle 1",9.029
same,EtBr fluorescence,"[4]; EtBr 2 µg/ml, cycle 2",9.296
same,EtBr fluorescence,"[4]; EtBr 2 µg/ml, cycle 3",9.71
same,EtBr fluorescence,"[4]; EtBr 2 µg/ml, cycle 4",9.991
same,EtBr fluorescence,"[4]; EtBr 2 µg/ml, cycle 5",10.2954
same,EtBr fluorescence,"[4]; EtBr 2 µg/ml, cycle 12",12.653
same,EtBr fluorescence,"[4]; EtBr 2 µg/ml, cycle 13",13.0282
same,EtBr fluorescence,"[4]; EtBr 2 µg/ml, cycle 14",13.3381
same,EtBr fluorescence,"[4]; EtBr 2 µg/ml, cycle 15",13.5191
same,EtBr fluorescence,"[4]; EtBr 2 µg/ml, cycle 16",13.6733
same,EtBr fluorescence,"[4]; EtBr 2 µg/ml, cycle 17",14.0513
same,EtBr fluorescence,"[4]; EtBr 2 µg/ml, cycle 18",14.1241
same,EtBr fluorescence,"[4]; EtBr 2 µg/ml, cycle 19",14.4449
same,EtBr fluorescence,"[4]; EtBr 2 µg/ml, cycle 20",14.643
same,EtBr fluorescence,"[4]; EtBr 2 µg/ml, cycle 21",14.9287
same,EtBr fluorescence,"[4]; EtBr 2 µg/ml, cycle 22",15.1966
same,EtBr fluorescence,"[4]; EtBr 2 µg/ml, cycle 23",15.196
same,EtBr fluorescence,"[4]; EtBr 2 µg/ml, cycle 24",15.3241
same,EtBr fluorescence,"[4]; EtBr 2 µg/ml, cycle 25",15.6489
same,EtBr fluorescence,"[4]; EtBr 2 µg/ml, cycle 26",15.801
same,EtBr fluorescence,"[4]; EtBr 2 µg/ml, cycle 27",15.8722
same,EtBr fluorescence,"[4]; EtBr 2 µg/ml, cycle 28",16.0341
same,EtBr fluorescence,"[4]; EtBr 2 µg/ml, cycle 29",16.3924
same,EtBr fluorescence,"[4]; EtBr 2 µg/ml, cycle 30",16.548
same,equilibrium concentration (influx equals efflux),[5],2 µg/mL
same,MIC,"[6]; AG100, read-out: MIC without efflux inhibitor",200 µg/mL
same,equilibrium concentration (influx equals efflux),[7],0.25 µg/mL
same,MIC,[8],512 µg/mL
same,MIC,[9],200 µg/mL
"N#CC(C#N)=NNc1cccc(Cl)c1 [CCCP, carbonyl cyanide-m-chlorophenylhydrazone]",percentage of depolarized cells (membrane potential collapse),[10],over 95%
"CN(C)[C@@H]1C(O)=C(C(N)=O)C(=O)[C@@]2(O)C(O)=C3C(=O)c4c(O)cccc4[C@@](C)(O)[C@H]3C[C@@H]12 [TET, tetracycline]",MIC,[1],0.5 µg/mL
same,MIC,[2],0.5 µg/mL
same,MIC,[3],64 µg/mL
same,MIC,[8],64 µg/mL
"Cc1onc(-c2ccccc2)c1C(=O)N[C@@H]1C(=O)N2[C@@H]1SC(C)(C)[C@@H]2C(=O)O [OXA, oxacillin]",MIC,[1],2 µg/mL
same,MIC,[2],2 µg/mL
same,MIC,[3],> 2050 µg/mL
same,MIC,"[6]; AG100, AG100, inhibitor 0 μM, read-out: MIC without efflux inhibitor",512 µg/mL
same,MIC,[8],> 2050 µg/mL
same,MIC,"[9]; E. coli AG100 wild-type, read-out: MIC",512 µg/mL
